Experiment [1] concerns the target T1, SMYD3 (Homo sapiens (Human), UniProt Q9H7B4). In words: SMYD3 biochemical assay (SPA, 3H-SAM methylation of MEKK2 protein substrate). In outline:
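Full-length native human SMYD3 (E. coli-expressed, tags removed) preincubated with compounds 30 min at room temperature, then reaction started with 3H-SAM and GST-tagged MEKK2 protein in 25 mM Tris-Cl pH 8.0, 1 mM TCEP, 0.005% BSG, 0.005% Tween 20. Quenched with unlabelled SAM (100 uM final); 3H-MEKK2 counted by SPA.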

Experiment [2] deals with T1, SMYD3. The experiment is described as follows: SMYD3 cell assay (Trimethyl-MEKK2 In-Cell Western in 293T/17 cells). The format is cell-based. The source says: Trimethyl-MEKK2-in-Cell Western Assay
MEM/Glutamax medium, Optimem Reduced Serum medium, penicillin-streptomycin, 0.05% trypsin and 1×D-PBS were purchased from Life Technologies, Grand Island, N.Y., USA. PBS-10× was purchased from Ambion, Life Technologies, Grand Island, N.Y., USA. PBS with Tween 20 (PBST (10×)) was purchased from KPL, Gaithersburg, Md., USA. Tet System FBS-approved FBS US Source was purchased from Clontech, Mountain View, Calif., USA. Odyssey blocking buffer, 800CW goat anti-rabbit IgG (H+L) antibody, 680CW Goat anti-mouse IgG (H+L) and Licor Odyssey infrared scanner were purchased from Licor Biosciences, Lincoln, Nebr., USA. Tri-methyl-Lysine [A260]-MEKK2 antibody, MEKK2 and SMYD3 plasmids were made at Epizyme. Anti-flag monoclonal mouse antibody was purchased from Sigma, St. Louis, Mo., USA. Methanol was purchased from VWR, Franklin, Mass., USA. 10% Tween 20 was purchased from KPL, Inc., Gaithersburg, Md., USA. Fugene was purchased from Promega, Madison, Wis., USA. The Biotek ELx405 was purchased from BioTek, Winooski, Vt., USA. The multidrop combi was purchased from Thermo Scientific, Waltham, Mass., USA.
Cell Treatment, in Cell Western (ICW) for Detection of Trimethyl-Lysine-MEKK2 and MEKK2.
Plasmids were prepared for delivery to cells by first mixing 1350 μL Opti-MEM with Fugene (81 μL) in a sterile Eppendorf and incubated for five minutes at room temperature (RT). […] Entire volume of Opti-MEM/Fugene mixture was then added to a microfuge tube containing DNA plasmid, mixed and then incubated×15 minutes at RT. […] Medium was then removed, and cells were washed once with PBS in the flask. Trypsin 0.05% (3 mL) was added and cells incubated for three minutes. Room temperature MEM+10% Tet system FBS was added and cells were mixed gently, and counted using the Vi-cell. Cells were seeded at 100,000 cells/mL in 50 μL MEM/10% Tet FBS/Pen/Strep to a 384 well black/clear poly-D-lysine coated plate containing test agent diluted in DMSO. The final top concentration of test compound was 40 μM. […] Plates were incubated×30 minutes at RT in low-airflow area, followed by incubation at 37° C. under 5% CO2 for 24 hours. Medium was aspirated from all wells of assay plates prior to fixation and permeabilization with ice cold (−20° C.) methanol (90 μL/well) for ten minutes. Plates were rinsed with PBS three times on BioTek ELx405. PBS was removed with a final aspiration, and Odyssey blocking buffer (50 μL/well) was added to each well and incubated for one hour at RT. Primary antibody solution was prepared (anti-trimethyl-MEKK2 at 1:600 dilution plus mouse anti-flag antibody at 1:10,000 dilution in diluent (Odyssey Blocking buffer+0.1% Tween 20)) and 20 μL per well was dispensed using the Multidrop Combi. Assay plates were then sealed with foil, and incubated overnight at 4° C. Plates were washed five times with PBS-Tween (1×) on Biotek ELx405 and blotted on paper towel to remove excess reagent.
First, the ratio for each well was determined by:
Each plate included fourteen control wells of DMSO only treatment (Minimum Inhibition) as well as fourteen control wells for maximum inhibition (Background). The average of the ratio values for each control type was calculated and used to determine the percent inhibition for each test well in the plate. Reference compound was serially diluted two-fold in DMSO for a total of nine test concentrations, beginning at 40 μM.
Percent inhibition was calculated (below).
Non-linear regression curves were generated to calculate the IC50 and dose-response relationship using triplicate wells per concentration of compound.

Where [3] appears, read: read-out: SMYD3 Biochem IC50 (μM)*.
[4] abbreviates: 293T/17 cells, read-out: SMYD3 Cell IC50 (μM)*.
[5] abbreviates: read-out: SMYD3 Cell IC50 (μM)*.
Setting [6] is: Table 1A, IC50 values are an average of n = 1 to n = 50, read-out: SMYD3 Cell IC50.
[7] abbreviates: average of n = 1 to n = 50, read-out: SMYD3 Biochem IC50.

The values below come from patent publication US10577363B2, “Substituted piperidine compounds” (EPIZYME, INC., priority 2014, dated 2020).

SMILES strings stand for the structures. Where a name gives a salt, the structure may show the parent alone.

T1 sequence (Q9H7B4 whole entry): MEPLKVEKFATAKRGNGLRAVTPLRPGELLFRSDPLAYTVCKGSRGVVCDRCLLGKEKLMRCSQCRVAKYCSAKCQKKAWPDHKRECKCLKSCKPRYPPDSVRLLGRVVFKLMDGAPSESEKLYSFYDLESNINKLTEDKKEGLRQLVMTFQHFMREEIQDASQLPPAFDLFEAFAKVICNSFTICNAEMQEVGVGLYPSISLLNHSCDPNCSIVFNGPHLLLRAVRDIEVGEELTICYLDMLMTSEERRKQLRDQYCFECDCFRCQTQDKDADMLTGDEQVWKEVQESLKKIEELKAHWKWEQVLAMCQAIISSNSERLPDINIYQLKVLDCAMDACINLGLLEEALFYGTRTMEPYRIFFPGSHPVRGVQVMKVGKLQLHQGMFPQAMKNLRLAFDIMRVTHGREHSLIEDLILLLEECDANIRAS

`C[C@H]1C[C@@H](NC(=O)c2cc(C3CC3)on2)CCN1S(=O)(=O)CC1CCNCC1` (single isomer, unassigned) [Cpd. No. 417]: the figures for the IC50 in experiment [1] (setting [3]) and in experiment [2] (setting [4]) were 0.00307 µM and 0.0508 µM, respectively.
Regarding `C[C@@H]1C[C@H](NC(=O)c2cc(C3CC3)on2)CCN1S(=O)(=O)CC1CCNCC1` (single isomer, unassigned) [Cpd. No. 418], the IC50 – broadly, the point on the concentration scale where inhibition reaches its midpoint – in experiment [1] (setting [3]) came out at 0.0172 µM; in experiment [2] (setting [4]), 0.197 µM.
The corresponding values for `O=C(N[C@@H]1C[C@H]2CC[C@@H](C1)N2S(=O)(=O)CCN1CCCC1)c1cc(C2CC2)on1` (single isomer, unassigned) [Cpd. No. 436] are 0.0613 µM and 0.285 µM.
For `CC(C)c1cc(C[C@@H](CN)C(=O)N2CCC(NC(=O)c3cc(C4CC4)on3)CC2)ccc1O` [Cpd. No. 121, N-[1-[(2S)-3-amino-2-[[4-hydroxy-3-(propan-2-yl)phenyl]methyl]propanoyl]piperidin-4-yl]-5-cyclopropyl-1,2-oxazole-3-carboxamide hydrochloride salt], the values for the IC50 in experiment [1] (setting [3]) and in experiment [2] (setting [5]) were 0.00957 µM and 0.68 µM, respectively.
Regarding `NCCCS(=O)(=O)N1C2CCCC1CC(NC(=O)c1cc(C3CC3)on1)C2` (stereo not shown) [Cpd. No. 181, N-[9-[(3-aminopropane)sulfonyl]-9-azabicyclo[3.3.1]nonan-3-yl]-5-cyclopropyl-1,2-oxazole-3-carboxamide hydrochloride salt], the IC50 in experiment [1] (setting [3]) was 0.0927 µM; in experiment [2] (setting [5]), 0.566 µM.
Turning to `C[C@H]1C[C@@H](NC(=O)c2cc(C3CC3)on2)CCN1S(=O)(=O)N1CCN(C)CC1` [Cpd. No. 279, 5-cyclopropyl-N-[(2S,4S)-2-methyl-1-(4-methylpiperazine-1-sulfonyl)piperidin-4-yl]-1,2-oxazole-3-carboxamide], the values for the IC50 in experiment [1] (setting [3]) and in experiment [2] (setting [4]) were 0.0815 µM and 0.266 µM, respectively.
As to `O=C(N[C@H]1CCN(C(=O)CC2CCNCC2)[C@@H](Cc2ccccc2)C1)c1cc(C2CC2)on1` [Cpd. No. 348, N-((2S,4S)-2-benzyl-1-(2-(piperidin-4-yl)acetyl)piperidin-4-yl)-5-cyclopropylisoxazole-3-carboxamide hydrochloride], the IC50 in experiment [1] (setting [3]) was 0.0225 µM; in experiment [2] (setting [4]), 0.838 µM.
For `C[C@H]1CN(S(=O)(=O)CCCN)CC[C@H]1NC(=O)c1cc(C2CC2)on1` [Cpd. No. 386, N-((3S,4R)-1-(3-aminopropylsulfonyl)-3-methylpiperidin-4-yl)-5-cyclopropylisoxazole-3-carboxamide], the half-inhibitory concentration (IC50) in experiment [1] (setting [3]) worked out at 0.0282 µM; in experiment [2] it was 0.34 µM.
In the case of `C[C@@H]1CN(C(=O)[C@H]2CC[C@H](N)CC2)[C@H](C)C[C@@H]1NC(=O)c1cc(C2CC2)on1` [Cpd. No. 420, N-((2R,4S,5R)-1-((1r,4R)-4-aminocyclohexanecarbonyl)-2,5-dimethylpiperidin-4-yl)-5-cyclopropylisoxazole-3-carboxamide], the IC50 in experiment [1] (setting [3]) is 0.0113 µM; in experiment [2] (setting [4]), 0.205 µM.
With `C[C@@H]1C[C@H](NC(=O)c2cc(C3CC3)on2)CCN1C(=O)c1ccc(C2(N)CCC2)cc1` [compound 479, N-((2R,4R)-1-(4-(1-aminocyclobutyl)benzoyl)-2-methylpiperidin-4-yl)-5-cyclopropylisoxazole-3-carboxamide], the IC50 in experiment [2] (setting [4]) was 2.03 µM.
For `O=C(N[C@@H]1C[C@H]2CC[C@@H](C1)N2S(=O)(=O)c1ccc2[nH]c(=O)[nH]c2c1)c1cc(C2CC2)on1` [compound 494, 5-cyclopropyl-N-((1R,3s,5S)-8-((2-oxo-2,3-dihydro-1H-benzo[d]imidazol-5-yl)sulfonyl)-8-azabicyclo[3.2.1]octan-3-yl)isoxazole-3-carboxamide], the concentration for half-maximal inhibition (IC50) in experiment [2] (setting [6]) was found to be 5.18 µM.
In the case of `CC(C)[C@H]1C[C@@H](NC(=O)c2cc(C3CC3)on2)CCN1S(=O)(=O)CCCN` [compound 501, N-((2R,4S)-1-((3-aminopropyl)sulfonyl)-2-isopropylpiperidin-4-yl)-5-cyclopropylisoxazole-3-carboxamide], the half-inhibitory concentration (IC50) in experiment [2] (setting [6]) was determined as 4.49 µM.
With `COCCN(C)CCCS(=O)(=O)N1[C@@H]2CC[C@H]1C[C@@H](NC(=O)c1cc(C3CC3)on1)C2` [compound 665, 5-cyclopropyl-N-((1R,3r,5S)-8-((3-((2-methoxyethyl)(methyl)amino)propyl)sulfonyl)-8-azabicyclo[3.2.1]octan-3-yl)isoxazole-3-carboxamide], the IC50 in experiment [1] (setting [7]) turned out to be 0.0868 µM.
On to `C[C@@H]1CN(S(=O)(=O)CCCNCc2ccccc2)[C@H](C)C[C@@H]1NC(=O)c1cc(C2CC2)on1` [compound 681, N-((2R,4S,5R)-1-((3-(benzylamino)propyl)sulfonyl)-2,5-dimethylpiperidin-4-yl)-5-cyclopropylisoxazole-3-carboxamide], for which the 50% inhibitory concentration (IC50) in experiment [2] (average of n = 1 to n = 50, read-out: SMYD3 Cell IC50) came out at 0.93 µM.
With `C[C@@H]1C[C@@H](NC(=O)c2cc(C3CC3)on2)CCN1S(=O)(=O)C(CCN)c1ccccc1` (stereo partly drawn) [compound 704, N-((2R,4S)-1-((3-amino-1-phenylpropyl)sulfonyl)-2-methylpiperidin-4-yl)-5-cyclopropylisoxazole-3-carboxamide], the IC50 in experiment [1] (setting [7]) turned out to be 0.218 µM.
The same measure, in the same setting: as for `Nc1cccc(S(=O)(=O)N2[C@@H]3CCC[C@H]2C[C@H](NC(=O)c2cc(C4CC4)on2)C3)n1` [compound 740, N-((1R,3s,5S)-9-((6-aminopyridin-2-yl)sulfonyl)-9-azabicyclo[3.3.1]nonan-3-yl)-5-cyclopropylisoxazole-3-carboxamide], the figure is 0.498 µM; as for `Cc1ccnc(S(=O)(=O)N2CC[C@H](NC(=O)c3cc(C4CC4)on3)C[C@@H]2C)c1` [compound 741, 5-cyclopropyl-N-((2S,4S)-2-methyl-1-((4-methylpyridin-2-yl)sulfonyl)piperidin-4-yl)isoxazole-3-carboxamide], 0.512 µM; as for `CC1(C(=O)N2CCC(NC(=O)c3cc(C4CC4)on3)CC2)CCNCC1` [compound 760, 5-cyclopropyl-N-(1-(4-methylpiperidine-4-carbonyl)piperidin-4-yl)isoxazole-3-carboxamide], 0.742 µM.
On the same count and under the same terms, as for `Cc1ccc(S(=O)(=O)N2C3CCC[C@@H]2C[C@@H](NC(=O)c2cc(C4CC4)on2)C3)nc1` [compound 763, 5-cyclopropyl-N-((1R,3S)-9-((5-methylpyridin-2-yl)sulfonyl)-9-azabicyclo[3.3.1]nonan-3-yl)isoxazole-3-carboxamide], the figure is 0.77 µM.
As to `C[C@H]1C[C@@H](NC(=O)c2cc(C3CC3)on2)CCN1S(=O)(=O)C[C@H]1CCCNC1` [compound 854, 5-cyclopropyl-N-((2S,4S)-2-methyl-1-((((S)-piperidin-3-yl)methyl)sulfonyl)piperidin-4-yl)isoxazole-3-carboxamide], the half-maximal inhibitory concentration (IC50) in experiment [1] (read-out: SMYD3 Biochem IC50*) is 0.00692 µM.
On to `C[C@H]1C[C@@H](NC(=O)c2cc(C3CC3)on2)CCN1S(=O)(=O)C[C@@H]1CCCNC1` [compound 875, 5-cyclopropyl-N-((2S,4S)-2-methyl-1-((((R)-piperidin-3-yl)methyl)sulfonyl)piperidin-4-yl)isoxazole-3-carboxamide], for which, in experiment [1] (read-out: SMYD3 Biochem IC50*), the IC50 is 0.01 µM.
The same measure, in the same setting: next, `O=C(N[C@H]1C[C@H]2CC[C@@H](C1)N2S(=O)(=O)N1CCNCC1Cc1ccccc1)c1cc(C2CC2)on1` (stereo partly drawn) [compound 940, N-((1R,3r,5S)-8-((2-benzylpiperazin-1-yl)sulfonyl)-8-azabicyclo[3.2.1]octan-3-yl)-5-cyclopropylisoxazole-3-carboxamide]: 0.0475 µM.
